Laboratory results: ChEMBL document CHEMBL4665911, “Novel Arginase Inhibitors for Treating Cancer and Respiratory Inflammatory Diseases” (ACS Med Chem Lett, 2020)

Biological target: T1, Arginase-1 (Homo sapiens, UniProt P05089)
T1 sequence (P05089 whole entry): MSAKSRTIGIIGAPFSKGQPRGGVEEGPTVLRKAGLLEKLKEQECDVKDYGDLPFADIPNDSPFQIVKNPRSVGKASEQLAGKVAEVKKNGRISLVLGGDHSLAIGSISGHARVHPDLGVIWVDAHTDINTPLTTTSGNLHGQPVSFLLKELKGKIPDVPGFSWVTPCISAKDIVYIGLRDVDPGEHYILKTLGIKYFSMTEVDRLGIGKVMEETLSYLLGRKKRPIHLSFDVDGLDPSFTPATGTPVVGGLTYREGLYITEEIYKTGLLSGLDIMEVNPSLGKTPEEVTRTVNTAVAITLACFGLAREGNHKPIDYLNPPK
Experiment: Inhibition of human recombinant arginase 1 expressed in Escherichia coli using thioarginine by Ellman's assay

N[C@H]1CCN[C@@](CCCCB(O)O)(C(=O)O)C1
IC50: 30 nM
